In brackets after ≈: the same amount, converted by molar mass. Bounds are passed on as bounds.

The text below walks through data of patent US20040029254A1, “Method of screening anti-bacterial agents for effectiveness in treating persistant intracellular infections” (University of Washington, priority 2002, published 2004).

Assay type in all cases: cell-based
Assay [1] relates to C. suis R-19 (porcine strain). The settings on record: McCoy cells; for MCC (microtiter): one freeze-thaw passage in microtiter plates; for MCC1 (shell vial): one passage in shell vials; for MCC3 (shell vial): three passages in shell vials; for MIC (microtiter): tetracycline-resistant strain.
Assay [2] deals with C. trachomatis L2 (LGV serovar). The experiment in a line: Anti-bacterial susceptibilities of reference strains.
Assay [3] deals with C. trachomatis B,D,E,F,G,H,I,Ia,J,K (human genital serovars). The description is as above.
The subject of assay [4] is C. trachomatis MoPn (mouse pneumonitis strain). The assay is described as above.
Assay [5] deals with clinical isolates of C. trachomatis. Nature of the assay: microbe, parasite or virus in culture.

Take `CC[C@H]1OC(=O)[C@H](C)[C@@H](O[C@H]2C[C@@](C)(OC)[C@@H](O)[C@H](C)O2)[C@H](C)[C@@H](O[C@@H]2O[C@H](C)C[C@H](N(C)C)[C@H]2O)[C@](C)(O)C[C@@H](C)CN(C)[C@H](C)[C@@H](O)[C@]1(C)O` [Azithromycin, azithromycin]: the “MCC (microtiter)” value was 0.25 µg/mL in assay [1], 0.25 µg/mL in assay [2], 0.25 µg/mL in assay [3] and 0.5 µg/mL in assay [4]. For the same molecule, the “MCC1 (shell vial)” value in assay [1], in assay [2], in assay [3] and in assay [4] was more than 8 µg/mL each time. The “MCC3 (shell vial)” value was more than 128 µg/mL in assay [1], 64 µg/mL in assay [2], 64 µg/mL in assay [3] and 128 µg/mL in assay [4]. For the same molecule, the MCC1 in assay [5] is 4 to 8 µg/mL. The molecule also displayed an MCC3 in assay [5] of 32 to 64 µg/mL.

As for `CC1COc2c(N3CCN(C)CC3)c(F)cc3c(=O)c(C(=O)O)cn1c23` (stereo not drawn) [Ofloxacin, ofloxacin], in assay [1], the “MCC (microtiter)” value is 1.0 µg/mL, the “MCC1 (shell vial)” value was more than 8 µg/mL, the “MIC (microtiter)” value amounted to 0.5 µg/mL (≈ 1.38 µM) and the “MCC3 (shell vial)” value was more than 128 µg/mL. Moreover, in assay [2], the “MCC1 (shell vial)” value is more than 8 µg/mL, the “MCC3 (shell vial)” value is more than 128 µg/mL and the “MCC (microtiter)” value is 1.0 µg/mL. Besides, in assay [3], the “MCC1 (shell vial)” value is more than 8 µg/mL, the “MCC3 (shell vial)” value is more than 128 µg/mL and the “MCC (microtiter)” value came to 1.0 µg/mL. In assay [4], the “MCC1 (shell vial)” value is more than 8 µg/mL, the “MCC3 (shell vial)” value was more than 128 µg/mL and the “MCC (microtiter)” value was 1.0 µg/mL. Further, in assay [5], the MCC1 lay within 8 to 16 µg/mL and the MCC3 is more than 128 µg/mL.

As to `CCCN1CCN(c2cc(O)c3nc4c5c6c7c(C)c(O)c5c(=O)c(c-4oc3c2)NC(=O)/C(C)=C\C=C\[C@H](C)[C@H](O)[C@@H](C)[C@@H](O)[C@@H](C)[C@H](OC(C)=O)[C@H](C)[C@@H](OC)/C=C/O[C@@](C)(O7)C6=O)CC1` [KRM-1657], in assay [5], the MCC1 lay within 0.0005 to 0.001 µg/mL and the MCC3 fell in the range of 0.001 to 0.002 µg/mL.

In assay [5], `CO[C@H]1/C=C/O[C@@]2(C)Oc3c(C)c(O)c4c(=O)c(c5oc6cc(N7CCN(CC(C)C)CC7)cc(O)c6nc-5c4c3C2=O)NC(=O)/C(C)=C\C=C\[C@H](C)[C@H](O)[C@@H](C)[C@@H](O)[C@@H](C)[C@H](OC(C)=O)[C@@H]1C` [Rifalazil, rifalazil] had an MCC1 of 0.001 to 0.002 µg/mL and an MCC3 of 0.004 to 0.008 µg/mL.

Take `C[C@H]1c2cccc(O)c2C(=O)C2=C(O)[C@]3(O)C(=O)C(C(N)=O)=C(O)[C@@H](N(C)C)[C@@H]3[C@@H](O)[C@@H]21` [Doxycycline, doxycycline]: in assay [1], the “MCC (microtiter)” value came to 2.0 µg/mL, the “MCC1 (shell vial)” value was more than 8 µg/mL, the “MIC (microtiter)” value is 1.0 µg/mL (≈ 2.25 µM) and the “MCC3 (shell vial)” value was more than 128 µg/mL. Moreover, in assay [2], the “MCC1 (shell vial)” value is more than 8 µg/mL, the “MCC3 (shell vial)” value is 32 µg/mL and the “MCC (microtiter)” value worked out at 0.125 µg/mL. Also, in assay [3], the “MCC1 (shell vial)” value was more than 8 µg/mL, the “MCC3 (shell vial)” value is 16 to 32 µg/mL and the “MCC (microtiter)” value came to 0.125 µg/mL. Also, in assay [4], the “MCC1 (shell vial)” value is more than 8 µg/mL, the “MCC3 (shell vial)” value is 64 µg/mL and the “MCC (microtiter)” value amounted to 0.5 µg/mL. In assay [5], this molecule registered an MCC1 of 4 to 8 µg/mL and an MCC3 of 32 to 64 µg/mL.
